Marks after values point to notes of the source that are not given here.

One experiment relates to Yorkshire pig. The experiment in a line: Wound healing in pig model (full thickness excisions, total granulation tissue). It is filed as in vivo. The protocol: Pig skin heals most like human skin and therefore testing on this animal provides an optimal paradigm to study cutaneous repair mechanisms. In this Example, the effect of an A2B antagonist on wound healing was tested in three pigs. PDGF (REGRANEX® (becaplermin) Gel 0.01%, Ortho-McNeil Pharmaceutical, Inc., Raritan, N.J.) was used as a positive control. The vehicle for drug delivery was 1.5% methylcellulose gel (KY gel). Control wounds received the vehicle alone. 3 different dosages of the A2B antagonist 3-ethyl-1-propyl-8-(1-{[3-(trifluoromethyl)phenyl]methyl}pyrazol-4-yl)-1,3,7-trihydropurine-2,6-dione, 1 μg/40 μl, 4 μg/40 μl, and 20 μg/40 μl were tested.
Method: Three Yorkshire pig ([…].) were used. On the day of surgery, a series of full thickness excisions were created alongside the paravertebral region on one side of the pig. Pigs were sacrificed at the end of 10 days and all wounds were removed for histological and immunohistochemical examinations.

A further experiment has as its system ICR derived male mice. The experiment in a line: Wound healing in mouse model (full-thickness punch wound, topical treatment). Format: in vivo. To be noted: mean, n=5; for CT50 (wound half-closure time): linear regression. On the procedure:
Groups of ICR derived male mice (weighing 24±2 g) of 5 each were used. During testing period, the animals were single-housed in each cage. Under hexobarbital (90 mg/kg, IP) anesthesia, the shoulder and back region of each animal was shaved. A sharp punch (ID 12 mm) was applied to remove the skin including panniculus carnosus and adherent tissues. […] Test substances were administered topically immediately following wound injury once daily for a total of 10 consecutive days. The closure of the wound (%) and wound half-closure time (CT50) were determined by linear regression using Graph-Pad Prism™ (Graph Pad Software USA) and unpaired Student's t test was applied for comparison between treated and vehicle groups at each measurement time point on days 3, 5, 7, 9 and 11. Differences are considered of statistical significance at P<0.05 level.
Table 1 presents test data obtained for the compound 3-ethyl-1-propyl-8-(1-{[3-(trifluoromethyl)phenyl]methyl}pyrazol-4-yl)-1,3,7-trihydropurine-2,6-dione using the mouse model discussed above. Table 2 presents test date obtained using 1,3-dipropyl-8-(1-{[6-(trifluoromethyl)(3-pyridyl)]methyl}pyrazol-4-yl)- 1,3,7-trihydropurine-2,6-dione. In each case, the vehicle used for comparison was 1.5% carboxymethylcellulose in phosphate buffered saline at pH 7.4

For the compound PDGF, the “Total granulation tissue, positive control versus placebo formulation” value in the experiment with Yorkshire pig (REGRANEX (becaplermin) Gel 0.01%, p=0.034) is reported as “statistical difference”.

Turning to `CCCn1c(=O)c2[nH]c(-c3cnn(Cc4ccc(C(F)(F)F)nc4)c3)nc2n(CCC)c1=O` [1,3-dipropyl-8-(1-{[6-(trifluoromethyl)(3-pyridyl)]methyl}pyrazol-4-yl)-1,3,7-trihydropurine-2,6-dione], the Percent wound closure with ICR derived male mice (Table 2, 0.5 μg/mouse topical once daily, Day 3) is 41.9* %; in the experiment with ICR derived male mice (Table 2, 0.5 μg/mouse topical once daily, Day 5) it was 53.5* %; in the experiment with ICR derived male mice (Table 2, 0.5 μg/mouse topical once daily, Day 7), 65.8* %; in the experiment on ICR derived male mice (Table 2, 0.5 μg/mouse topical once daily, Day 9), 77.1* %; in the experiment with ICR derived male mice (Table 2, 0.5 μg/mouse topical once daily, Day 11), 85.3* %. For the same compound, in the experiment on ICR derived male mice (Table 2, 0.5 μg/mouse topical once daily), the “CT50 (wound half-closure time)” value is 5.5* DAYS.

Turning to `CCCn1c(=O)c2[nH]c(-c3cnn(Cc4cccc(C(F)(F)F)c4)c3)nc2n(CC)c1=O` [3-ethyl-1-propyl-8-(1-{[3-(trifluoromethyl)phenyl]methyl}pyrazol-4-yl)-1,3,7-trihydropurine-2,6-dione], the Percent wound closure in the experiment on ICR derived male mice (0.5 μg/mouse topical once daily, Day 1) is given as 0%; with ICR derived male mice (0.5 μg/mouse topical once daily, Day 2), 43.2* %; with ICR derived male mice (0.5 μg/mouse topical once daily, Day 3) it was 51.2* %; in the experiment on ICR derived male mice (0.5 μg/mouse topical once daily, Day 4), 56.0* %; in the experiment on ICR derived male mice (0.5 μg/mouse topical once daily, Day 5) it was 58.8* %; in the experiment with ICR derived male mice (0.5 μg/mouse topical once daily, Day 6), 64.3* %. The Percent wound closure in the experiment with ICR derived male mice (0.5 μg/mouse topical once daily, Day 7) is reported as 72.5* %; in the experiment with ICR derived male mice (0.5 μg/mouse topical once daily, Day 8), 78.2* %; with ICR derived male mice (0.5 μg/mouse topical once daily, Day 9) it was 82.5* %; with ICR derived male mice (0.5 μg/mouse topical once daily, Day 10), 83.1* %; in the experiment on ICR derived male mice (0.5 μg/mouse topical once daily, Day 11), 87.1* %; with ICR derived male mice (2 μg/mouse topical once daily, Day 1) it was 0%. The Percent wound closure in the experiment on ICR derived male mice (2 μg/mouse topical once daily, Day 2) is given as 35.6* %; with ICR derived male mice (2 μg/mouse topical once daily, Day 3), 46.5* %; with ICR derived male mice (2 μg/mouse topical once daily, Day 4) it was 57.4* %; in the experiment on ICR derived male mice (2 μg/mouse topical once daily, Day 5), 62.4%; in the experiment with ICR derived male mice (2 μg/mouse topical once daily, Day 6) it was 68.3* %; with ICR derived male mice (2 μg/mouse topical once daily, Day 7) it was 73.3* %. The Percent wound closure was 78.8* % in the experiment with ICR derived male mice (2 μg/mouse topical once daily, Day 8); 82.2* % in the experiment on ICR derived male mice (2 μg/mouse topical once daily, Day 9); 89.2* % with ICR derived male mice (2 μg/mouse topical once daily, Day 10); 91.6* % in the experiment with ICR derived male mice (2 μg/mouse topical once daily, Day 11). Besides, the “CT50 (wound half-closure time)” value in the experiment with ICR derived male mice (0.5 μg/mouse topical once daily) is reported as 4.3* DAYS; in the experiment on ICR derived male mice (2 μg/mouse topical once daily), 4.4* DAYS. Further, the “Total granulation tissue, lowest dose versus highest dose” value in the experiment with Yorkshire pig (1 μg/40 μl versus 20 μg/40 μl topical, p=0.047) is reported as “statistical difference”. For the same compound, in the experiment with Yorkshire pig (20 μg/40 μl topical, p=0.035), the “Total granulation tissue, highest dose versus placebo formulation” value was “statistical difference”. The “Effect on total granulation tissue” value in the experiment with Yorkshire pig (topical 1, 4 and 20 μg/40 μl in 1.5% methylcellulose gel, 10 days, FIG. 1) was “stimulated the total granulation tissue in a dose-dependent fashion”.
